According to the CheMixHub ionic liquid set:
Values joined by “and” are separate entries in the source; they are usually repeats but may differ in a detail not shown here. Equal values may be shown once.

Assay: xn = mol fraction of the nth substance listed
Conditions: 298.15 K, 101.3 kPa

CCCCCC[n+]1ccn(C)c1.[Cl-] + OC[C@H]1O[C@@](CO)(O[C@H]2O[C@H](CO)[C@@H](O)[C@H](O)[C@H]2O)[C@@H](O)[C@@H]1O + O
Conditions | electrical conductivity
x2 = 0, x1 = 4.23e-06 | 0.00276 S/m
x2 = 0, x1 = 7.11e-06 | 0.00451 S/m
x2 = 0, x1 = 1.01e-05 | 0.00631 S/m
x2 = 0, x1 = 1.293e-05 | 0.008 S/m
x2 = 0, x1 = 1.551e-05 | 0.00953 S/m
x2 = 0, x1 = 1.836e-05 | 0.01121 S/m
x2 = 0, x1 = 2.116e-05 | 0.0129 S/m
x2 = 0, x1 = 2.393e-05 | 0.0145 S/m
x2 = 0, x1 = 2.652e-05 | 0.016 S/m
x2 = 0, x1 = 2.919e-05 | 0.0175 S/m
x2 = 0.003591, x1 = 8.04e-06 | 0.00433 S/m
x2 = 0.003591, x1 = 1.174e-05 | 0.00611 S/m
x2 = 0.003591, x1 = 1.526e-05 | 0.00778 S/m
x2 = 0.003591, x1 = 1.864e-05 | 0.00936 S/m
x2 = 0.003591, x1 = 2.202e-05 | 0.0109 S/m
x2 = 0.003591, x1 = 2.53e-05 | 0.01242 S/m
x2 = 0.003591, x1 = 2.853e-05 | 0.0139 S/m
x2 = 0.003591, x1 = 3.177e-05 | 0.01532 S/m
x2 = 0.003591, x1 = 3.49e-05 | 0.0167 S/m
x2 = 0.003591, x1 = 3.779e-05 | 0.018 S/m
x2 = 0.007156, x1 = 6.71e-06 | 0.00314 S/m
x2 = 0.007156, x1 = 1.012e-05 | 0.00459 S/m
x2 = 0.007156, x1 = 1.35e-05 | 0.00603 S/m
x2 = 0.007156, x1 = 1.699e-05 | 0.00749 S/m
x2 = 0.007156, x1 = 2.028e-05 | 0.00888 S/m
x2 = 0.007156, x1 = 2.319e-05 | 0.0101 S/m
x2 = 0.007156, x1 = 2.608e-05 | 0.01131 S/m
x2 = 0.007156, x1 = 2.915e-05 | 0.0126 S/m
x2 = 0.007156, x1 = 3.212e-05 | 0.0138 S/m
x2 = 0.007156, x1 = 3.545e-05 | 0.01517 S/m
x2 = 0.0107, x1 = 7.99e-06 | 0.00313 S/m
x2 = 0.0107, x1 = 1.176e-05 | 0.00442 S/m
x2 = 0.0107, x1 = 1.521e-05 | 0.00559 S/m
x2 = 0.0107, x1 = 1.87e-05 | 0.00676 S/m
x2 = 0.0107, x1 = 2.207e-05 | 0.00787 S/m
x2 = 0.0107, x1 = 2.533e-05 | 0.00894 S/m
x2 = 0.0107, x1 = 2.851e-05 | 0.00998 S/m
x2 = 0.0107, x1 = 3.135e-05 | 0.0109 S/m
x2 = 0.0107, x1 = 3.442e-05 | 0.0119 S/m
x2 = 0.0107, x1 = 3.724e-05 | 0.0128 S/m
x2 = 0.01421, x1 = 1.053e-05 | 0.00345 S/m
x2 = 0.01421, x1 = 1.542e-05 | 0.00495 S/m
x2 = 0.01421, x1 = 2.022e-05 | 0.00641 S/m
x2 = 0.01421, x1 = 2.485e-05 | 0.00781 S/m
x2 = 0.01421, x1 = 2.901e-05 | 0.00905 S/m
x2 = 0.01421, x1 = 3.286e-05 | 0.0102 S/m
x2 = 0.01421, x1 = 3.675e-05 | 0.01135 S/m
x2 = 0.01421, x1 = 4.055e-05 | 0.0125 S/m
x2 = 0.01421, x1 = 4.424e-05 | 0.0136 S/m
x2 = 0.01421, x1 = 4.811e-05 | 0.0147 S/m
x2 = 0.0177, x1 = 9.25e-06 | 0.00262 S/m
x2 = 0.0177, x1 = 1.338e-05 | 0.0037 S/m
x2 = 0.0177, x1 = 1.736e-05 | 0.00474 S/m
x2 = 0.0177, x1 = 2.112e-05 | 0.00571 S/m
x2 = 0.0177, x1 = 2.447e-05 | 0.00658 S/m
x2 = 0.0177, x1 = 2.813e-05 | 0.00751 S/m
x2 = 0.0177, x1 = 3.139e-05 | 0.00835 S/m
x2 = 0.0177, x1 = 3.466e-05 | 0.00918 S/m
x2 = 0.0177, x1 = 3.742e-05 | 0.00987 S/m
x2 = 0.0177, x1 = 4.046e-05 | 0.0106 S/m
x2 = 0.02116, x3 = 0.9787 | 0.01832 S/m
x2 = 0.02116, x3 = 0.9788 | 0.014 S/m and 0.0154 S/m and 0.0169 S/m
